Drawing on patent US7927624B2, “Hydrophilic/lipophilic polymeric matrix dosage formulation” (Jagotec AG, priority 2000, dated 2011), this text covers solubility for 1 molecule.

Structures are written as SMILES. Converted amounts (≈) assume the structure as drawn.

This data set in a line: physchem. The settings on record: water.

`CCCN(CCC)CCc1cccc2c1CC(=O)N2` [ropinirole, Ropinirole] gave a solubility of 133 mg/mL (≈ 511 mM).
